Data reported in patent publication US20220202845A1, “METHODS AND COMPOSITIONS FOR TREATING CANCER” (Fred Hutchinson Cancer Research Center, priority 2018, published 2022).

Legend:
p38α = p38α (Homo sapiens, UniProt Q16539); details: fold selective over p38β; cited from earlier work
DUX4 mRNA [1] = assay: DUX4 mRNA levels by RT-qPCR in differentiating MB200 FSHD2 patient-derived muscle cells; format: cell-based, human; details: varying concentrations, 24 hours, vs DMSO vehicle set to one
Experimental: (§1) FIG. 13A-C. CDK7 inhibitor THZ1 reduces DUX4 expression in FSHD cells and cancer cells. (A) Differentiating MB200 FSHD2 patient-derived muscle cells, (B) SuSa testicular teratocarcinoma cells, or (C) KLE endometrial adenocarcinoma cells were treated with vehicle (−, DMSO) or varying concentrations of THZ1, as indicated, for 24 hours (A) or 20 hours (B-C) and cultures analyzed for DUX4 mRNA levels by RT-qPCR. […] Data are represented as relative expression (means, with error bars indicating standard deviation across three biological replicates) with expression in the absence of inhibitor set to one. FSHD muscle cells utilize DUX4 exon 3, while SuSa cells and KLE cells use DUX4 exon 3b.
(§2) Total RNA was extracted from whole cells using the NucleoSpin RNA kit (Machery-Nagel) according to the manufacturer's instructions. Isolated RNA was treated with DNase I (Thermo Fisher Scientific), heat inactivated, and reverse transcribed into cDNA using SuperScript III (Thermo Fisher Scientific) and oligo(dT) primers (Invitrogen) following the manufacturer's protocol. Quantitative PCR was carried out on a QuantStudio 7 Flex (Applied Biosystems) using primers specific for each mRNA and iTaq SYBR Green Supermix (Bio-Rad Laboratories, Inc.). […]
(§3) Next, the cells were analyzed for DUX4 mRNA levels by RT-qPCR.

DUX4 mRNA [2] = assay: DUX4 mRNA levels by RT-qPCR in SuSa testicular teratocarcinoma cells; format: cell-based, human; details: varying concentrations, 20 hours, vs DMSO vehicle set to one
Experimental: as §1, §2, §3

DUX4 mRNA [3] = assay: DUX4 mRNA levels by RT-qPCR in KLE endometrial adenocarcinoma cells; format: cell-based, human; details: varying concentrations, 20 hours, vs DMSO vehicle set to one
Experimental: as §1, §2, §3

Sequence of p38α (Q16539 whole entry): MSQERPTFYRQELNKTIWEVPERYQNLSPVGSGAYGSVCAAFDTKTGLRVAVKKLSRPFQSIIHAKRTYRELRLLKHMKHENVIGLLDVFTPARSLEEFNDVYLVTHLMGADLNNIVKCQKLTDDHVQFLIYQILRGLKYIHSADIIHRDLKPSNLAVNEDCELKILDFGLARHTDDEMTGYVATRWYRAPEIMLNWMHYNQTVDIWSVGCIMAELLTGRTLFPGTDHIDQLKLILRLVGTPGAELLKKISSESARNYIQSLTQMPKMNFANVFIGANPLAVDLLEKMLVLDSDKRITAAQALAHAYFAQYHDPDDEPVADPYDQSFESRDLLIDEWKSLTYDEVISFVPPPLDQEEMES

Row | SMILES | Selectivity for p38α over p38β (p38α) | DUX4 mRNA levels (relative expression) (DUX4 mRNA [1]) | DUX4 mRNA levels (relative expression) (DUX4 mRNA [2]) | DUX4 mRNA levels (relative expression) (DUX4 mRNA [3])
1 | O=c1ncn2nc(Sc3ccc(F)cc3F)ccc2c1-c1c(Cl)cccc1Cl [VX-745] | p38α22X selective over p38β | – | – | –
2 | NC(=O)c1ccc(N(C(N)=O)c2c(F)cccc2F)nc1-c1ccc(F)cc1F [VX-702] | p38α14X selective over p38β | – | – | –
3 | CN(C)C/C=C/C(=O)Nc1ccc(C(=O)Nc2cccc(Nc3ncc(Cl)c(-c4c[nH]c5ccccc45)n3)c2)cc1 [THZ1] | – | inhibits DUX4 expression | inhibits DUX4 expression | inhibits DUX4 expression
